≈ marks a conversion by molar mass, not a printed value.
Columns and labels:
B. cereus = test: standard disc plate assay, 12.5 mm paper discs (zone of inhibition), B. cereus; format: cell-based, Bacillus cereus; conditions: conclusion in words from the above results
Excerpt: (§1) The novel intermediates, disclosed herein, are useful to make novel aminoglycoside antibiotics. These novel aminoglycoside antibiotics are antibacterially active, and, thus, they can be used in various environments to eradicate or control sensitive bacteria. Following are in vitro antibacterial test results for representative compounds of the subject invention. The results were obtained with a standard disc plate assay using 12.5 mm paper discs.

B. subtilis = test: standard disc plate assay, 12.5 mm paper discs (zone of inhibition), B. subtilis; format: cell-based, Bacillus subtilis; conditions: conclusion in words from the above results
Excerpt: as §1

S. aureus UC 76 [1] = test: standard microplate test in BHI Agar (MIC), S. aureus UC 76; format: cell-based, Staphylococcus aureus
Description: (§2) Compounds were also tested in a standard microplate test in Brain Heart Infusion (BHI) Agar, at a concentration of 1 mg/ml. Incubation is at 37° and end points are read at 20 hours. Brain Heart Infusion Agar (supplied by Difco Laboratories, Detroit, Michigan, U.S.A.) has the following composition:
(§3) Compounds (7β), (7α) and (9) were tested again along with compounds (11) and (14β) against a neamine control using the same conditions as given above.

S. hemolyticus UC 152 = test: standard microplate test in BHI Agar (MIC), S. hemolyticus UC 152; format: cell-based, Streptococcus hemolyticus; conditions: Streptococcus pyogenes, UC152, 20 h; S. hemolyticus UC 152; retest table, group (7β), (14β), neamine control; read-out: Minimum Inhibitory Concentration
Description: as §2, §3

St. faecalis UC 694 = test: standard microplate test in BHI Agar (MIC), St. faecalis UC 694; format: cell-based; conditions: Enterococcus faecalis, UC694, 20 h, S. faecalis UC 694; retest table, group (7β), (14β), neamine control; read-out: Minimum Inhibitory Concentration
Description: as §2, §3

E. coli UC 45 = test: standard microplate test in BHI Agar (MIC), E. coli UC 45; format: cell-based; conditions: Escherichia coli, UC45, 20 h, E. coli UC 45; retest table, group (7β), (14β), neamine control; read-out: Minimum Inhibitory Concentration
Description: as §2, §3

P. vulgaris UC 93 [2] = test: standard microplate test in BHI Agar (MIC), P. vulgaris UC 93; format: cell-based; conditions: Proteus vulgaris, UC93, 20 h, P. vulgaris UC 93; retest table, group (7β), (14β), neamine control; read-out: Minimum Inhibitory Concentration
Description: as §2, §3

K. pneumoniae UC 58 = test: standard microplate test in BHI Agar (MIC), K. pneumoniae UC 58; format: cell-based; conditions: Klebsiella pneumoniae, UC58, 20 h; K. pneumoniae UC 58; retest table, group (7β), (14β), neamine control; read-out: Minimum Inhibitory Concentration
Description: as §2, §3

Ps. aeruginosa UC 95 [3] = test: standard microplate test in BHI Agar (MIC), Ps. aeruginosa UC 95; format: cell-based; conditions: Pseudomonas aeruginosa, UC95, 20 h, Ps. aeruginosa UC 95; retest table, group (7β), (14β), neamine control; read-out: Minimum Inhibitory Concentration
Description: as §2, §3

D. pneumoniae UC 41 = test: standard microplate test in BHI Agar (MIC), D. pneumoniae UC 41; format: cell-based; conditions: Streptococcus pneumoniae, UC41, 20 h, D. pneumoniae UC 41; retest table, group (7β), (14β), neamine control; read-out: Minimum Inhibitory Concentration
Description: as §2, §3

P. mirabilis A-63 = test: standard microplate test in BHI Agar (MIC), P. mirabilis A-63; format: cell-based; conditions: Proteus mirabilis, A63, 20 h; P. mirabilis A-63; retest table, group (7β), (14β), neamine control; read-out: Minimum Inhibitory Concentration
Description: as §2, §3

P. morgani UC 3186 = test: standard microplate test in BHI Agar (MIC), P. morgani UC 3186; format: cell-based; conditions: 20 h; P. morgani UC 3186; retest table, group (7β), (14β), neamine control; read-out: Minimum Inhibitory Concentration
Description: as §2, §3

P. rettgeri UC 339 = test: standard microplate test in BHI Agar (MIC), P. rettgeri UC 339; format: cell-based; conditions: Providencia rettgeri, UC339, 20 h; P. rettgeri UC 339; retest table, group (7β), (14β), neamine control; read-out: Minimum Inhibitory Concentration
Description: as §2, §3

S. marcescens UC 131 = test: standard microplate test in BHI Agar (MIC), S. marcescens UC 131; format: cell-based; conditions: Serratia marcescens, UC131, 20 h; S. marcescens UC 131; retest table, group (7β), (14β), neamine control; read-out: Minimum Inhibitory Concentration
Description: as §2, §3

S. flexneri UC 143 = test: standard microplate test in BHI Agar (MIC), S. flexneri UC 143; format: cell-based; conditions: Shigella flexneri, UC143, 20 h, retest table, group (7β), (14β), neamine control, read-out: Minimum Inhibitory Concentration
Description: as §2, §3

S. typhi TG-3 = test: standard microplate test in BHI Agar (MIC), S. typhi TG-3; format: cell-based; conditions: Salmonella enterica, 20 h, read-out: Minimum Inhibitory Concentration
Description: as §2, §3

B. cereus UC 3145 = test: agar diffusion (standard agar disc plate) assay, B. cereus UC 3145; format: cell-based, Bacillus cereus; set-up: unit: mm
Description: as §1
(§4) Compound (14β) was also tested against a series of bacteria on a standard agar disc plate assay, as described above.

B. subtilis UC 564 = test: agar diffusion (standard agar disc plate) assay, B. subtilis UC 564; format: cell-based, Bacillus subtilis; set-up: unit: mm
Description: as §1, §4

S. aureus UC 76 [4] = test: agar diffusion (standard agar disc plate) assay, S. aureus UC 76; format: cell-based, Staphylococcus aureus; set-up: unit not given here
Description: as §1, §4

P. vulgaris UC 93 [5] = test: agar diffusion (standard agar disc plate) assay, p. vulgaris UC 93; format: cell-based; set-up: unit: mm
Description: as §1, §4

Ps. aeruginosa UC 95 [6] = test: agar diffusion (standard agar disc plate) assay, Ps. aeruginosa UC 95; format: cell-based
Description: as §1, §4

E. coli UC 51 = test: agar diffusion (standard agar disc plate) assay, E. coli UC 51; format: cell-based, Escherichia coli; set-up: unit not given here
Description: as §1, §4

S. lutea UC 130 = test: agar diffusion (standard agar disc plate) assay, S. lutea UC 130; format: cell-based; set-up: unit: mm
Description: as §1, §4

K. pneumoniae UC 57 = test: agar diffusion (standard agar disc plate) assay, K. pneumoniae UC 57; format: cell-based; set-up: unit: mm
Description: as §1, §4

## NC[C@H]1O[C@H](O[C@H]2[C@H](O)[C@@H](O)[C@H](N)C[C@@H]2N)[C@H](N)[C@@H](O[C@@H]2O[C@H](CO)[C@@H](O)[C@H]2O)[C@@H]1O [Compound (14β), 3'-O-(β-D-Ribofuranosyl)neamine]
B. cereus
  active against Bacillus cereus: active
B. subtilis
  active against Bacillus subtilis: active
S. aureus UC 76 [1]; Staphylococcus aureus, UC76, 20 h, S. aureus UC 76, retest table, group (7β), (14β), neamine control, read-out: Minimum Inhibitory Concentration
  MIC: 1000 µg/mL (≈ 2200 µM)
S. aureus UC 76 [1]; conclusion in words from the above results
  active against Staphylococcus aureus: active
S. hemolyticus UC 152
  MIC: 1000 µg/mL (≈ 2200 µM)
St. faecalis UC 694
  MIC: 1000 µg/mL (≈ 2200 µM)
E. coli UC 45
  MIC: 1000 µg/mL (≈ 2200 µM)
P. vulgaris UC 93 [2]
  MIC: 1000 µg/mL (≈ 2200 µM)
K. pneumoniae UC 58
  MIC: 500 µg/mL (≈ 1100 µM)
Ps. aeruginosa UC 95 [3]
  MIC: 1000 µg/mL (≈ 2200 µM)
D. pneumoniae UC 41
  MIC: 1000 µg/mL (≈ 2200 µM)
P. mirabilis A-63
  MIC: 1000 µg/mL (≈ 2200 µM)
P. morgani UC 3186
  MIC: 1000 µg/mL (≈ 2200 µM)
P. rettgeri UC 339
  MIC: 1000 µg/mL (≈ 2200 µM)
S. marcescens UC 131
  MIC: 1000 µg/mL (≈ 2200 µM)
S. flexneri UC 143
  MIC: 1000 µg/mL (≈ 2200 µM)
S. typhi TG-3
  MIC: 1000 µg/mL (≈ 2200 µM)
B. cereus UC 3145; Full Strength
  Agar Diffusion Assay: 25.5
B. cereus UC 3145; dilution 1 : 2
  Agar Diffusion Assay: 24
B. cereus UC 3145; dilution 1 : 4
  Agar Diffusion Assay: 21
B. cereus UC 3145; dilution 1 : 8
  Agar Diffusion Assay: 18
B. subtilis UC 564; Full Strength
  Agar Diffusion Assay: 37
B. subtilis UC 564; dilution 1 : 2
  Agar Diffusion Assay: 35.5
B. subtilis UC 564; dilution 1 : 4
  Agar Diffusion Assay: 33
B. subtilis UC 564; dilution 1 : 8
  Agar Diffusion Assay: 30.5
S. aureus UC 76 [4]; Full Strength
  Agar Diffusion Assay: 25
S. aureus UC 76 [4]; dilution 1 : 2
  Agar Diffusion Assay: 23
S. aureus UC 76 [4]; dilution 1 : 4
  Agar Diffusion Assay: 21
S. aureus UC 76 [4]; dilution 1 : 8
  Agar Diffusion Assay: 17.5
P. vulgaris UC 93 [5]; Full Strength
  Agar Diffusion Assay: 26
P. vulgaris UC 93 [5]; dilution 1 : 2
  Agar Diffusion Assay: 22
P. vulgaris UC 93 [5]; dilution 1 : 4
  Agar Diffusion Assay: 19.5
P. vulgaris UC 93 [5]; dilution 1 : 8
  Agar Diffusion Assay: 16
Ps. aeruginosa UC 95 [6]; Full Strength
  Agar Diffusion Assay: 20
Ps. aeruginosa UC 95 [6]; dilution 1 : 2
  Agar Diffusion Assay: 17
Ps. aeruginosa UC 95 [6]; dilution 1 : 4
  Agar Diffusion Assay: 14
E. coli UC 51; Full Strength
  Agar Diffusion Assay: 27
E. coli UC 51; dilution 1 : 2
  Agar Diffusion Assay: 24.5
E. coli UC 51; dilution 1 : 4
  Agar Diffusion Assay: 22
E. coli UC 51; dilution 1 : 8
  Agar Diffusion Assay: 18
S. lutea UC 130; Full strength
  Agar Diffusion Assay: 25
S. lutea UC 130; dilution 1 : 2
  Agar Diffusion Assay: 22.5
S. lutea UC 130; dilution 1 : 4
  Agar Diffusion Assay: 19
S. lutea UC 130; dilution 1 : 8
  Agar Diffusion Assay: 15
K. pneumoniae UC 57; Full strength
  Agar Diffusion Assay: 31
K. pneumoniae UC 57; dilution 1 : 2
  Agar Diffusion Assay: 29
K. pneumoniae UC 57; dilution 1 : 4
  Agar Diffusion Assay: 27
K. pneumoniae UC 57; dilution 1 : 8
  Agar Diffusion Assay: 23

From patent US3984393A, “Aminoglycoside antibiotics” (The Upjohn Company, priority 1975, dated 1976)
